Test results: BindingDB's records for doi:10.1073/pnas.74.9.3805 (1977)
Several values for one entry are separate records, joined by “and”; a condition that tells them apart may be missing. Equal values may be shown once.

Target: Gamma-aminobutyric acid receptor subunit alpha-1 (Rattus norvegicus, UniProt P62813)
Sequence (P62813 whole entry): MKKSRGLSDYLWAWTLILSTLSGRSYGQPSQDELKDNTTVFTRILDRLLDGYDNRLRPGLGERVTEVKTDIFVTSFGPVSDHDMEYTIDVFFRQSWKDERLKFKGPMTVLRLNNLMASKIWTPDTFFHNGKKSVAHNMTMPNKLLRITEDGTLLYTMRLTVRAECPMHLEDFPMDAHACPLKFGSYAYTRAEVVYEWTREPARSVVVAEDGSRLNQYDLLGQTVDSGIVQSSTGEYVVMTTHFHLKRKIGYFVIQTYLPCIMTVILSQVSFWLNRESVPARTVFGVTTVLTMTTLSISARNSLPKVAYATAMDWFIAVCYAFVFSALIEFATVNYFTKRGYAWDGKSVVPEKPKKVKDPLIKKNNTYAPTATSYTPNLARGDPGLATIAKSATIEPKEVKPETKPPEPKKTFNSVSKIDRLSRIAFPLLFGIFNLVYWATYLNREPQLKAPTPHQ

O=C1CN=C(c2ccccc2Cl)c2cc([N+](=O)[O-])ccc2N1 [5-(2-chlorophenyl)-7-nitro-1,3-dihydro-2H-1,4-benzodiazepin-2-one] was tested, and the Ki was 5.08 µM and 2.9 µM and 7.9 µM.
